The source of these data is PMC3968014, “Design and Synthesis of a Library of Lead-Like 2,4-Bisheterocyclic Substituted Thiophenes as Selective Dyrk/Clk Inhibitors” (PLoS ONE, 2014).

A word on the inhibition: it is the share of the control response that was lost under treatment. As a reminder, the IC50 is the midpoint of a concentration-inhibition curve. As usually defined, the half-life is the time needed for the level to fall by half in the phase considered. A lower half-life goes with fast loss. Broadly, the logP is a log measure of how a compound divides between an organic and an aqueous phase. A high value points to higher lipophilicity. The term melting point denotes the temperature of the solid-liquid transition.

Where two headings read alike, the source gives them in different places.

One data set concerns the target T1, Dyrk1A (Homo sapiens, UniProt Q13627).
T1 construct: encoding the catalytic domain of human Dyrk1A; thrombin cleavage site (N); made in house; host or cells: Escherichia coli BL21(DE3) with pRARE
As to the kind of experiment: Dyrk1A kinase assay (32P-ATP, Woodtide). Format: biochemical. The conditions noted are these: for inhibition at 5 µM: read-out: percentage of inhibition Dyrk1A; for IC50: 100 µM ATP.

A further data set has as its target T2, Dyrk1B (Homo sapiens, UniProt Q9Y463).
T2 construct: purchased Life Technologies PV4649 (LOT # 877059G)
The data set can be described thus: Dyrk1B kinase assay (32P-ATP, Woodtide). Format: biochemical. The settings on record: for inhibition at 5 µM: read-out: percentage of inhibition Dyrk1B; for IC50: 100 µM ATP.

In another data set the target is T3, Dyrk2 (Homo sapiens, UniProt Q92630).
T3 construct: made in house; host or cells: Escherichia coli BL21(DE3) with pRARE; plasmid pGEX-2TK-Dyrk2 (gift from W. Becker, Aachen)
T3 sequence (Q92630 1-601): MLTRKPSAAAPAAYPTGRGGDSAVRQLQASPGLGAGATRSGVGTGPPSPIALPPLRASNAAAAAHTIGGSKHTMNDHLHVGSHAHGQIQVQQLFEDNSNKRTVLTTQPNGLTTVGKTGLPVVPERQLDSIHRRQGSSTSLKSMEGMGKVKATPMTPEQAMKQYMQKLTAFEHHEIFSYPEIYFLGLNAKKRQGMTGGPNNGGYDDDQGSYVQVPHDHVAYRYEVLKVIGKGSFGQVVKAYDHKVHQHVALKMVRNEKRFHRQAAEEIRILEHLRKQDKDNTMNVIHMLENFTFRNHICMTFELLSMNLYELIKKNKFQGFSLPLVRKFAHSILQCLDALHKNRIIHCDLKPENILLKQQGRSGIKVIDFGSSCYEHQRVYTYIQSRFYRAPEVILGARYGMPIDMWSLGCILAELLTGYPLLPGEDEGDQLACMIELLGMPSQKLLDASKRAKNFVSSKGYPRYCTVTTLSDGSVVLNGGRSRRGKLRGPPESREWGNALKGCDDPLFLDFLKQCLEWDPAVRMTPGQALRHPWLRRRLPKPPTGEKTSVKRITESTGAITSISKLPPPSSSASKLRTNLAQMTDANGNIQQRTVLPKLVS
As to the kind of experiment: Dyrk2 kinase assay (32P-ATP, Woodtide). In kind it is biochemical. The settings on record: for inhibition at 5 µM: read-out: percentage of inhibition Dyrk2.

A further data set concerns the target Clk1 (Homo sapiens, UniProt P49759). As to the kind of experiment: Clk1 kinase assay (RS repeat peptide). In kind it is biochemical. The settings on record: read-out: % inhibition Clk1.
Data set [1] relates to V79 hamster lung fibroblast cells. The data set can be described thus: ViaLight Toxicity Assay. Format: cell-based. The settings on record: 48 hours. The protocol: V79 hamster lung fibroblast cells were plated at a density of 45,000 cells per well in a white 96 well plate and allowed to adhere and grow for 24 hours. The compounds were then applied as dilutions in cell culture medium (DMEM with 10% FCS and penicillin/streptomycin mix) at a final concentration of 5, 10, and 20 µM, respectively. The plate was further incubated for 48 hours at 37°C in a humidified atmosphere containing 5% CO2. The ATP level was detected with a LONZA ViaLight™ Plus Kit according to protocol 1 of the vendor's instructions. Luminescence was measured in a POLARstar plate reader (BMG Labtech, Offenburg, Germany). The background luminescence was obtained from equally treated, cell-free wells containing serum, and subtracted from all values. Inhibition values obtained for different compound concentrations were compared using the two-sided Student's t-test; levels of significance thus obtained are indicated by asterisks.

A short description of data set [2]: Metabolic Stability Assay. The conditions noted are these: male, Sprague-Dawley, rat, microsomes.
The next data set deals with T4, CK2α (Homo sapiens, UniProt P68400).
T4 construct: purchased Life Technologies (Invitrogen SelectScreen); Dyrk1A, Dyrk2 and CK2α in-house or gifts
T4 sequence (P68400 whole entry): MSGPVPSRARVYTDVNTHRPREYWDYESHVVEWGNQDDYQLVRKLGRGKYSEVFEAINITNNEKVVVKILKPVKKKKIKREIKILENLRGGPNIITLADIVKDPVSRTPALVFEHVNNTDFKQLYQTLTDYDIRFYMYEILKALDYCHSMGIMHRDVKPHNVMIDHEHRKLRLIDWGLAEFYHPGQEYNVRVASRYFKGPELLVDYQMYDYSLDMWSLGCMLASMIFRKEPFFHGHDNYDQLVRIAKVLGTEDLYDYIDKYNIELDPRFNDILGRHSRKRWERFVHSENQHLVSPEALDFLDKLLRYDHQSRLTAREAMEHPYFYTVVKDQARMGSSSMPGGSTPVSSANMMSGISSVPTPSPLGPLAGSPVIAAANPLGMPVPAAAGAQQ
As to the kind of experiment: CK2α kinase assay (counter screen). In kind it is biochemical. The conditions noted are these: read-out: percentage of inhibition CK2α. Here is the method:
Dyrk1A, Dyrk1B, Dyrk2, CK2α and Clk1 kinase reactions were performed in a reaction buffer containing 50 mM Tris/HCl, pH 7.4, 0.1 mM EGTA, 0.5 mM DTT, 10 mM MgCl2, 100 µM ATP and 0.33 µM [γ-^32ATP] as well as the appropriate substrate peptides, which were 100 µM Woodtide for the Dyrk isoforms ([…]-NH2), 60 µM CK2 substrate peptide ([…]-NH2, from Millipore) for CK2α or RS repeat peptide ([…]) for Clk1. The CK2α protein was a kind gift of M. Montenarh (Homburg). The kinase reactions were performed at 30°C for 15 min and terminated by spotting 5 µL of the reaction mixture onto a P81 phosphocellulose membrane (Whatman). The membrane was washed four times with 0.3% phosphoric acid and one time with acetone and dried. The dry membrane was exposed in a cassette to a Phosphor Screen Imaging Plate (FujiFilm) and the signals detected by scanning of the imaging plate in a Fuji FLA-3000 PhosphoImager. The spots were quantified using AIDA software (Raytest, Version 3.52) to determine the activities of the kinases in the assay reactions. […] IC50 values were calculated by fitting the data with Origin Pro 8.6 (OriginLabs). The calculated IC50 values are representative of at least two independent determinations.
For orientation: Counterscreens check selectivity or assay interference.

The nature of data set [3]: Determination of logP, pka and logS (Sirius T3). In kind it is physicochemical. The conditions noted are these: Experimental. The protocol: The physicochemical parameters were determined on a Sirius T3 machine (Sirius Analytical machines, East Sussex, UK) by automated titration according to the manufacturer's instructions.
In another data set the test system is U2OS osteosarcoma cells. The data set can be described thus: Caspase-3 Assay (Caspase-Glo 3/7). Format: cell-based. The settings on record: starved U2OS cells, 48 hours, vs DMSO control. Here is the method:
U2OS osteosarcoma cells were seeded in a 96 well flat bottom plate (15*10^3 cells/well). […] The induction of caspase-3/7 activity was measured using the Promega Caspase-Glo 3/7 assay system (Promega, LOT 0000054568). The resulting luciferase reaction signals that are proportional to the caspase induction were measured in a POLARstar plate reader (BMG Labtech, Offenburg, Germany). […] Values obtained for different compound concentrations were compared using the two-sided Student's t test; levels of significance thus obtained are indicated by asterisks.

[4] abbreviates: 100 µM ATP, read-out: IC50 Dyrk2.

T2 sequence (Q9Y463 whole entry): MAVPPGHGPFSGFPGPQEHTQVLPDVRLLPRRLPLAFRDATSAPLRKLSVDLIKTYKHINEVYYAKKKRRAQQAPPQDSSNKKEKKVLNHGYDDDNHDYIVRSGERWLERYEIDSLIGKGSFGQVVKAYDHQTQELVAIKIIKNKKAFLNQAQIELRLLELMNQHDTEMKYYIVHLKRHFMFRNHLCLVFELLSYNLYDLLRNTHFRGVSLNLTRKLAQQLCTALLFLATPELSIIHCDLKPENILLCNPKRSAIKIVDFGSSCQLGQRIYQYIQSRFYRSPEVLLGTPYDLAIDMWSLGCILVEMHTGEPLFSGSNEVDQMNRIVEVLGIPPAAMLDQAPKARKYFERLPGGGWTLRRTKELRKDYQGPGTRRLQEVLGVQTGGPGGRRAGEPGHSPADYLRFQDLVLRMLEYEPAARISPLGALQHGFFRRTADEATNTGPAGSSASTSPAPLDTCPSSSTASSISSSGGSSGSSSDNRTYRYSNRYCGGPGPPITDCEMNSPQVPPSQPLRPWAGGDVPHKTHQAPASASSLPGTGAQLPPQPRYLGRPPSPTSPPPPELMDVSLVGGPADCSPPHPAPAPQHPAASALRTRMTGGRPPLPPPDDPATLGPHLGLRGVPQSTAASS
Chain of Clk1 (P49759 whole entry): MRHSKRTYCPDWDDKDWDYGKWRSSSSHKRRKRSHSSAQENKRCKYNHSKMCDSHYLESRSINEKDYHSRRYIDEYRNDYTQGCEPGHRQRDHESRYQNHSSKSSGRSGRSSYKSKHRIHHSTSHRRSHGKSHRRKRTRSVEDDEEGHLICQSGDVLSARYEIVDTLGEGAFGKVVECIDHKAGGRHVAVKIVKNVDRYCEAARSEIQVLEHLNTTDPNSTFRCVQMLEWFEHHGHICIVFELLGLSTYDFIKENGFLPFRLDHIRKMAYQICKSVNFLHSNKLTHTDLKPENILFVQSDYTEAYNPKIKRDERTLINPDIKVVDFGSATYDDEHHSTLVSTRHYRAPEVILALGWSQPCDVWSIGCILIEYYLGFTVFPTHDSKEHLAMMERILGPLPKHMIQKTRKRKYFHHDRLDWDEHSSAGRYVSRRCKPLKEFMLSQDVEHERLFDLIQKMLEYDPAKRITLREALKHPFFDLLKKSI

As to `COc1ccc2c(c1)[nH]c1c(C)nccc12` [Harmine, harmine, reference compound], the inhibition at 5 µM at Dyrk1A worked out at 98%; at Dyrk1B, 98%; at Dyrk2 it was 68%; on Clk1 it was 97%. The compound also showed an IC50 against Dyrk2 (IC50 Dyrk2, 100 µM ATP) of 3000 nM. Further, in data set [1] (V79 cells, 5 µM), the “influence on cell viability (cellular ATP levels)” value is on record as “slightly toxic”. For the same compound, the CLhep predicted at 0.5 µM in data set [2] was 53 mL/min/kg. In data set [2], this compound registered a half-life at 0.5 µM of 18 min.
For `c1cncc(-c2csc(-c3cccnc3)c2)c1` [Compound 4], the inhibition at 5 µM on CK2α stood at 18.5%. In [3], this compound showed a logP of 2.47. Besides, the solubility was 500 µg/mL in data set [3] (read-out: Solubility) and 2140 µM in [3] (read-out: logS (converted)). For the same compound, the figures for the pKa in data set [3] (read-out: pka1) and in data set [3] (read-out: pka2) were 3.48 and 4.8, respectively.
`Cc1cncc(-c2csc(-c3cccnc3)c2)c1` [Compound 5, 3-methyl-5-[5-(pyridin-3-yl)thiophen-3-yl]pyridine]: the melting point fell in the range of 106 to 107 °C. This compound also had an IC50 on Dyrk1A of 900 nM. For the same compound, it took 1200 nM to reach half-maximal inhibition against Dyrk1B (IC50). The IC50 at Dyrk2 (setting [4]) was found to be 600 nM. In addition, the inhibition at 5 µM on CK2α worked out at 5%.
For `c1cncc(-c2cc(-c3ccncc3)cs2)c1` [Compound 11], the inhibition at 5 µM stood at 10% at Dyrk1A (at 5 µM), 10% at Dyrk1B, 20% on Dyrk2 (at 5 µM) and 0% on CK2α. In addition, in the data set on U2OS osteosarcoma cells, the caspase-3/7 activity entry was “only a slight increase”. Further, the “influence on cell growth (cellular ATP levels)” value in data set [1] (V79 cells, 5, 10 and 20 µM) is “no influence”.
`COc1cncc(-c2csc(-c3cccnc3)c2)c1` [Compound 8, 3-methoxy-5-[5-(pyridin-3-yl)thiophen-3-yl]pyridine] registered a melting point of 132 to 133 °C. Besides, the IC50 on Dyrk1A was 700 nM. On Dyrk1B, this compound showed a concentration for half-maximal inhibition (IC50) of 300 nM. Also, on Dyrk2 (setting [4]), the 50% inhibitory concentration (IC50) is 200 nM. The inhibition at 5 µM at CK2α stood at 16%.
Turning to `CC(=O)c1cncc(-c2csc(-c3cccnc3)c2)c1` [Compound 17, 1-{5-[5-(pyridin-3-yl)thiophen-3-yl]pyridin-3-yl}ethan-1-one], the melting point was 166 to 167 °C. The compound also had an IC50 against Dyrk1A of 900 nM. The IC50 against Dyrk1B is 1100 nM. On Dyrk2 (setting [4]), the IC50 was determined as 900 nM. Moreover, at CK2α, the inhibition at 5 µM was found to be 0%.
The compound `NC(=O)c1cncc(-c2csc(-c3cccnc3)c2)c1` [Compound 19, 5-[5-(pyridin-3-yl)thiophen-3-yl]pyridine-3-carboxamide] came in with a melting point of 217 to 218 °C. This compound also gave an IC50 on Dyrk1A of 900 nM. At Dyrk1B, the midpoint of inhibition, the IC50, lay at 1500 nM. Besides, the IC50 at Dyrk2 (setting [4]) came to 300 nM. Also, the inhibition at 5 µM on CK2α is 4.2%.
